Reference: paper PMC3131519 (Frontiers in Microbiology, 2011)

Columns and labels:
[1] = tested on: P. aeruginosa (ATCC 19429); assay: Galleria mellonella infection by P. aeruginosa, treatment survival; type: in vivo; settings: 1 × 10^3 CFU P. aeruginosa, single dose 5 μg ciprofloxacin
red blood cells = settings: 100 μg/ml peptide; ref de Latour et al., 2010; Dean et al., 2011; cited from earlier work

Molecule	effectiveness at prolonging survival vs infected control, in words [1]	hemolysis (red blood cells)
O=C(O)c1cn(C2CC2)c2cc(N3CCNCC3)c(F)cc2c1=O [ciprofloxacin]	effective	
ATRA		no significant hemolysis
